From patent US11291642B2, “Dimethyl fumarate particles and pharmaceutical compositions thereof” (BIOGEN MA INC., priority 2015, dated 2022)
Counter-ions that a name gives are not always drawn.

Columns and labels:
Type in all cases: physicochemical
[1] = Particle size of dimethyl fumarate by Malvern laser diffraction; settings: for Span: Span=(D90−D10)/D50; for Span / D × 10 (μm) / D × 50 (μm) / D × 90 (μm) / D × 97 (μm) / ≤10 μm: Table 1; for ≤10 μm: fraction of particles ≤10 μm; for d10 / d50 / d90: 350 kg batch, laser diffraction, Table 3
Description: As use herein, the particle size is expressed in terms of volume diameter and the particle size distribution is expressed in terms of D50, D10, D90 and span.
In certain embodiments, the particle size described herein are measured using a laser diffraction technique that correlates light scattering to particle volume on which effective length or effective diameter is calculated. The distribution is based on a measurement of thousands of particles. Particle samples can be in dry form or in slurry. In one embodiment, the instrument used to determine particle size/distribution is a Beckman Coulter LS230 or a Malvern Mastersizer.
As used herein, “D50”, also known as the median diameter, corresponds to the value under which 50% of the particles has a lower volume diameter. “D90” corresponds to the value under which 90% of the particles has a lower volume diameter. “D10” corresponds to the value under which 10% of the particles has a lower volume diameter.
As used herein, “span” is a measure for particle size distribution. It is calculated according to the following equation: Span=(D90−D10)/D50

[2] = FT4 Powder Rheometer dynamic testing (flow rate index, specific energy); settings: for Flow Rate Index: flow energy at 10 mm/s / 100 mm/s
Description: In certain embodiments, powder characterization described herein can be determined using the FT4 Powder Rheometer (Freeman Technology Ltd, Tewkesbury, UK) with the 25 mm vessel assembly having 23.5 mm diameter blades, vented piston, a segmented rotational shear cell accessory and a 10 or 25 ml borosilicate vessel. Powder testing can be generally divided into three categories: dynamic tests, permeability test and shear test. Dynamic testing uses the 23.5 mm diameter blades and a 25 ml powder sample in the borosiliate test vessel. Powder is filled into the vessel and the blades are simultaneously rotated and moved axially into the powder sample as the axial and rotational forces are measure and used to calculate the dynamic flowability parameters, such as flow rate index (FRI) and Specific Energy (SE). As used herein, the “flow rate index” (or FRI) is a measure of a powder's sensitivity to variable flow rate and is obtained as the ratio of the total energy required to induce powder flow at 10 mm/s and 100 mm/s blade tip speed. A larger deviation from 1 indicates greater sensitivity of a powder to variable flow rate. FRI=Flow Energy@10mm/s/Flow Energy@100mm/s As used herein, “specific energy” or SE is a measure of the powder flow in low stress environment and is derived from the shear forces acting on the blades as they rotate upward through the powder. The SE is recorded as the flow energy of the powder normalized by its weight in mJ/g during the upward spiral movement of the blades in a FT4 Powder Rheometer describe above. A lower SE is an indication of a less cohesive powder and better flow properties. DMF powder characterization was conducted using the FT4 Powder Rheometer (Freeman Technology Ltd, Tewkesbury, UK) using the 25 mm vessel assembly which consists of 23.5 mm diameter blades, vented piston, a segmented rotational shear cell accessory; and a 10 or 25 ml borosilicate vessel. All powders were pre-conditioned by the instrument's built-in conditioning step. Dynamic testing used the 23.5 mm diameter blades and a 25 ml powder sample in the borosilicate test vessel. Powder was filled into the vessel. The blades were simultaneously rotated and moved axially into the powder sample as the axial and rotational forces were measured and used to calculate the dynamic flowability parameters. Among dynamic parameters tested are Flow rate Index (FRI) and Specific Energy (SE). Their measurement techniques are described below: The FRI is a measure of a powder's sensitivity to variable flow rate and it is obtained as the ratio of the total energy required to induce powder flow at 10 mm/s and 100 mm/s blade tip speed. A larger deviation from 1 indicates greater sensitivity of a powder to variable flow rate. SE is a measure of the powder flow in low stress environment and is derived from the shear forces acting on the blades as they rotate upward through the powder. The SE is recorded as the flow energy of the powder normalized by its weight in […] during the upward spiral movement of the blades. A lower SE is an indication of a less cohesive powder and better flow properties.

[3] = FT4 Powder Rheometer shear test (flow function); settings: for Flow Function: FT4, Table 2, FF=MPS/UYS; for Flow Function (FF): 350 kg batch, FT4, Table 3
Description: Shear testing measures powder shear properties which involves the stress limit required to initiate a powder flow. The shear testing uses a segmented rotational shear cell head and a 10 ml powder sample in the borosilicate test vessel. Powder is filled into the vessel. The shear cell head is simultaneously rotated and moved axially under the powder sample at pre-determined normal stresses as the shear stresses are measured to calculate several parameters, including the flow function (FF). As used herein, “flow function” or FF is a parameter commonly used to rank powder's flowability and is determined using a shear test. The data produced in the shear test represents the relationship between shear stress and normal stress, which can be plotted to define the powder's Yield Locus, which is shown in FIG. 21. Fitting Mohr stress circles to the yield locus identifies the Major Principle Stress (MPS) and Unconfined Yield Strength (UYS). Flow function is the ratio of Major Principle Stress (MPS) to the Unconfined Yield Strength (UYS): FF=MPS/UYS. Usually, powders of low cohesion have higher FF and that represents better flow properties. Shear testing measures powder shear properties which involves the stress limit required to initiate a powder flow. The shear testing used a segmented rotational shear cell head and a 10 ml powder sample in the borosilicate test vessel. Powder was filled into the vessel. The shear cell head was simultaneously rotated and moved axially unto the powder sample at pre-determined normal stresses as the shear stresses were measured to calculate several parameters that include the flow function (FF) and powder cohesion (in kPa). Usually, powders of low cohesion have higher FF and that represents better flow properties.

[4] = Particle morphology by Malvern Morphologi G3; settings: compared to jet milled material
Description: As used herein, “aspect ratio” is the ratio of width divided by length of a particle. “Elongation” is defined as 1-aspect ratio. Shapes symmetrical in all axes, such as circles or squares, will tend to have an elongation close to 0, whereas needle-shaped particles will have values closer to 1. Elongation is more an indication of overall form than surface roughness. As used herein, “convexity” is a measurement of the surface roughness of a particle and is calculated by dividing the perimeter of an imaginary elastic band around the particle by the true perimeter of the particle. A smooth shape, regardless of form, has a convexity of 1 while a very ‘spiky’ or irregular object has a convexity closer to 0. As used herein, “circularity” or “high sensitivity circularity” is a measurement of the ratio of […]. A perfect circle has a circularity of 1 while a very narrow rod has a High Sensitivity (HS) Circularity close to 0. The higher the HS Circularity value the closer it is to a circle. Intuitively, circularity is a measure of irregularity or the difference from a perfect circle. […] The percentage of thicker particles can be determined using Malvern Instrument Morphologi G3. […] The intensity of light is quantified by the grey scale factor which depends on the amount of light reaching the detector. […]

[5] = Comparison of unmilled coarse DMF versus wet-milled DMF for enteric coating in fluid bed; settings: for Coated crystals: enterically coated particles made from the named API; for Flow of API particle in fluid bed: fluid bed coating process; for Particle morphology: uncoated API particles
Description: The enteric coated DMF is prepared using a Glatt GPCG-2 fluid bed granulator with a 6′ Wurster column. Dissolution was run with USP apparatus II by the Pharmaceutical Analytical Development Department with the following method.
DMF first de-lumped with a Frewitt Comill with screen size 1.0 mm. Then, it is mixed with silicon dioxide (Aerosil) and being fluidize in the fluid bed granulator for 5 minutes.
Eudragit L100 and triethyl citrate is used for coating an enteric layer for stomach acid protection on the DMF API particles. Samples were taken at different L100 weight gain to compare gastric protection capability.
Unmilled coarse DMF were coated according to the method of described in Example 5. Various properties of the unmilled coarse DMF and enterically coated DMF are compared with wet-milled DMF and enterically coated DMF made from wet-milled DMF.

[6] = Flow of drug product blend measured with Flodex; settings: blends of DMF with other excipients as in approved twice a day formulation; FIG. 1
Excerpt: The y-axis indicates the aperture of cone containing the blend powder. Smaller aperture indicates better flow.

[7] = FT4, Table 2, no unit printed in table (mJ/g)
[8] = listed as wet-milled DMF particles

Span [1]	D × 10 (μm) [1] [μm]	D × 50 (μm) [1] [μm]	D × 90 (μm) [1] [μm]	D × 97 (μm) [1] [μm]	≤10 μm [1] [%]	Flow Rate Index ([2]; FT4, Table 2)	Specific Energy [2, 7]	Flow Function [3]	SMILES	other results
1.554	51.5	127	249	319	1.87	–	–	–	COC(=O)/C=C/C(=O)OC [Batch A14DS0977, dimethyl fumarate]	–
1.593	44.1	113	224	294	2.32	1.68	8.67	12.84	COC(=O)/C=C/C(=O)OC [Batch A14DS0978, dimethyl fumarate]	–
1.562	31.9	96	182	235	2.61	1.11	4.87	5.84	COC(=O)/C=C/C(=O)OC [2014-4281-A.4, dimethyl fumarate]	–

The remaining lines, values behind:

SMILES	Span [1]	D × 10 (μm) [1] [μm]	D × 50 (μm) [1] [μm]	D × 90 (μm) [1] [μm]	D × 97 (μm) [1] [μm]	≤10 μm [1] [%]	Flow Rate Index ([2]; FT4, Table 2)	Specific Energy [2, 7]	Flow Function [3]	other results
COC(=O)/C=C/C(=O)OC [Batch A14DS1097, dimethyl fumarate]	1.772	33.1	87.8	189	257	2.89	1.54	9.19	5.97	–
COC(=O)/C=C/C(=O)OC [Run 1, dimethyl fumarate]	–	–	–	–	–	–	–	–	–	d10 [1]: 35 μm; d50 [1]: 83 μm; d90 [1]: 156 μm; Flow rate Index (FRI) ([2]; 350 kg batch, FT4, Table 3): 1.61; Specific Energy ([2]; 350 kg batch, FT4, Table 3): 12.21 mJ/g; Flow Function (FF) [3]: 10.3
COC(=O)/C=C/C(=O)OC [Batch 11P1310, dimethyl fumarate]	2.05	9	30	70	97	11.48	–	–	–	–
COC(=O)/C=C/C(=O)OC [Batch B1417-140304, dimethyl fumarate]	–	–	–	–	–	–	1.50	5.48	2.25	–
COC(=O)/C=C/C(=O)OC [Run 2, dimethyl fumarate]	–	–	–	–	–	–	–	–	–	d10 [1]: 39 μm; d50 [1]: 83 μm; d90 [1]: 150 μm; Flow rate Index (FRI) ([2]; 350 kg batch, FT4, Table 3): 1.39; Specific Energy ([2]; 350 kg batch, FT4, Table 3): 12.18 mJ/g; Flow Function (FF) [3]: 4.95
COC(=O)/C=C/C(=O)OC [2014-4281-A.8, dimethyl fumarate]	1.71	27.2	70.8	148	208	3.87	1.37	6.64	3.29	–
COC(=O)/C=C/C(=O)OC [Wet milled API, dimethyl fumarate]	–	–	–	–	–	–	–	–	–	Particle shape (aspect ratio, HS circularity, convexity) [4]: slightly less elongated, more circular and less edgy; Thick particles (percentage of particles with intensity <80) [4]: contained more thick particles; Coated crystals [5]: Isolated and small; Coated crystals [5, 8]: small coated particles with uniform size distribution; Flow of API particle in fluid bed [5]: uniform flow; Flow of API particle in fluid bed [5, 8]: desirable flowability; Particle morphology [5]: 3D structure; Particle morphology [5, 8]: three dimensional morphology; Particle size D50 ([5]; uncoated API, Table 8): D50 = 60-100 μm; Powder flow of drug product blend [6]: improvement in powder flow
COC(=O)/C=C/C(=O)OC [2014-4281-A.9, dimethyl fumarate]	1.58	26.8	88.2	166	210	3.02	1.33	6.42	2.50	–
